The source of these data is patent US10575526B2 (priority 2004, dated 2020).

Data set [1] can be described thus: Glyphosate residue analysis in RR canola. In kind it is in vivo. The note with it: 0.8 lb, seed. From the text:
The selection of application rates that are effective for a specific plant pathogen is within the skill of the ordinary agricultural scientist. […] Useful application rates for the glyphosate compositions employed can depend upon all of the above conditions.

The test system of another data set is Fusarium. Description: In vitro fungal cell growth on media containing glyphosate. The data set is classed as cell-based. The following applies: crop of interest Wheat/potato.
A further data set deals with Gaeumannomyces. Described as above. The data set is classed as cell-based. The following applies: crop of interest Wheat.
Data set [2] concerns Common rust or Southern rust spores (Puccinia sorghi, Puccinia polysora). Description: Field tests of glyphosate on rust diseases of Roundup Ready corn nk603. In kind it is in vivo. The following applies: 1 to 9 scale.
Data set [3] relates to Verticillium wilt (Verticillium dahliae). Description: Verticillium wilt control in Roundup Ready cotton. In kind it is in vivo. The following applies: three genetic backgrounds, 22 ounces of WeatherMax Roundup at two and five true leaf stage, observed about three and four months after planting, versus adjacent untreated plot. The source says: The cotton seeds were planted and the emerged plants were sprayed with 22 ounces of WeatherMax Roundup® at the two and five true leaf stage. […] The treated plants continued to grow compared to the untreated plants that had shut down. […] Cotton plants suffering from other wilt diseases of cotton, especially Fusarium wilt disease, are expected to benefit from treatment with glyphosate.

Consider `O=C(O)CNCP(=O)(O)O` [glyphosate, N-phosphonomethylglycine], for which the “Gly (ppm)” value in data set [1] turned out to be 0.02 ppm. In addition, the “In vitro EC90, ppm” value in the data set with Fusarium and with Gaeumannomyces was 1000 ppm in each case. The average disease rating in data set [2] (hybrid corn, treatment #1 (pre-inoculation), 2× rate (1.5 lb./A), 1=resistant, 9=susceptible, control 4.1) is 3.6; in data set [2] (inbred corn, treatment #1 (pre-inoculation), 2× rate, controls 5.0 and 4.9), 4.0; in data set [2] (inbred corn, treatment #1 (pre-inoculation), 3× rate, controls 5.0 and 4.9) it was 3.2. Moreover, the disease rating is on record as 3.0 in data set [2] (hybrid corn, treatment #1 (pre-inoculation), 3× rate (2.25 lb./A), control 4.1); 4.1 in data set [2] (hybrid corn, treatment #2 (14 days post inoculation), control 4.1); 3.9 in data set [2] (hybrid corn, treatment #3 (28 days post inoculation), control 4.1); 4.9 in data set [2] (inbred corn, post inoculation treatments, second value); 4.4 in data set [2] (inbred corn, post inoculation treatments). For the same molecule, the wilt symptoms entry in data set [3] is on record as “reduced symptoms”.
